Earlier results as cited in patent publication US9046534B2, “Methods and systems for identifying and treating anti-progestin sensitive tumors” (INVIVIS PHARMACEUTICALS INC., priority 2011, dated 2015).

Assays:
breast cancer = settings: first line hormone treatment, small breast cancer study
advanced breast cancer = settings: 101 poor prognosis patients with advanced breast cancer, progressed despite prior hormonal therapy (tamoxifen)
[1] = human subjects; an increase is an undesirable side-effect for breast cancer therapy
PR = molecular target: T1, PR (Homo sapiens, UniProt P06401); settings: in vitro systems; aggregates produced by an artificial ligand bound to the PR
T1 sequence (P06401 1-933): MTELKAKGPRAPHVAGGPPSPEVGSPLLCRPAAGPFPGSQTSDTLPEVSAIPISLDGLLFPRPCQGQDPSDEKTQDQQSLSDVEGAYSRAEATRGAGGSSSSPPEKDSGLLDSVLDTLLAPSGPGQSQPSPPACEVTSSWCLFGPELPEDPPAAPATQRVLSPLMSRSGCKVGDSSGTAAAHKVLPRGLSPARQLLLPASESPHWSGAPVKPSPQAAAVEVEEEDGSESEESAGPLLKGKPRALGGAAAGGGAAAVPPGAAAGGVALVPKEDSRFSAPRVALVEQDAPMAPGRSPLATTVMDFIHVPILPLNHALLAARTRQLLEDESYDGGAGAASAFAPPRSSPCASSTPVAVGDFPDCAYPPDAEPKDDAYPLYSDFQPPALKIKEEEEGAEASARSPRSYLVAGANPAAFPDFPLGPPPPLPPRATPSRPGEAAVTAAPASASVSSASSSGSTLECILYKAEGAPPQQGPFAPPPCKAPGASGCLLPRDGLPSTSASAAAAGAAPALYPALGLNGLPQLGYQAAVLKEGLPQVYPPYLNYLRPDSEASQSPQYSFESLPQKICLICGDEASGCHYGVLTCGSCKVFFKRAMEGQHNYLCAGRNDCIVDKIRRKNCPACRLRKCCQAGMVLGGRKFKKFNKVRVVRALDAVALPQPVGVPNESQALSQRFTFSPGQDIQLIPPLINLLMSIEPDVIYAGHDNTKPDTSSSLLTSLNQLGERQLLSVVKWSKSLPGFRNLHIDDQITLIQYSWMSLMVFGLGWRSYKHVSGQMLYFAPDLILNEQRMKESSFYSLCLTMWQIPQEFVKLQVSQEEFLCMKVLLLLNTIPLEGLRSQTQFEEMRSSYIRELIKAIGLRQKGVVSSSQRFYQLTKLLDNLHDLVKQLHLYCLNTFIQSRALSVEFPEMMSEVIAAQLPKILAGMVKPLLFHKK

[2] = system: progesterone responsive genes; settings: compared with progestins and other anti-progestins, which activate progesterone responsive genes

## CN(C)c1ccc([C@H]2C[C@]3(C)[C@@H](CC[C@]3(O)CCCO)C3CCC4=CC(=O)CCC4=C32)cc1 (stereo in doubt) [Onapristone, (8S,11R,13R,14S,17S)-11-[4-(dimethylamino)phenyl]-17-hydroxy-17-(3-hydroxypropyl)-13-methyl-1,2,6,7,8,11,12,14,15,16-decahydrocyclopenta[a]phenanthren-3-one]
Breast cancer
  objective response rate: 56%
Advanced breast cancer
  response rate: 10%
[1]
  effect on estrogen secretion: does not increase estrogen secretion
PR
  effect on PR nuclear aggregates: reverse the PR nuclear aggregates
[2]
  activation of progesterone responsive genes (number of genes activated): 3 genes
